Tests used:
[1] = tested on: mouse T cells isolated from the spleen; test: T cell immunofluorescence staining of tubulin and F-actin; assay type: cell-based; details: 10 nmol/L, 72 h
Method: Mouse T cells isolated from the spleen and treated with a vehicle control or with docetaxel (10 nmol/L for 72 h) were seeded on glass coverslips pre-coated with poly-D-lysine (Thermo Fisher Cat. No. A3890401) and with αCD3 (eBioscience, Cat. No. 56-0033-80) for 15 min. Next, for immunofluorescence staining of tubulin, cells were extracted for 1 min with pre-warmed (37° C.) extraction buffer composed of MRB80 (80 mmol/L K-PIPES pH 6.8, 4 mmol/L MgCl2, 1 mmol/L EGTA) supplemented with 0.35% Triton X-100 and 0.2% glutaraldehyde, followed by fixation using pre-warmed (37° C.) 4% paraformaldehyde (PFA) in PBS for 10 min. Cells were washed with PBS and permeabilized with 0.2% Triton X-100 in PBS for 5 min. […]
For fluorescence intensity quantifications, samples were imaged on a spinning disk confocal setup consisting of an inverted research microscope Nikon Eclipse Ti-E (Nikon) equipped with the perfect focus system (Nikon), Plan Apo VC 100×N.A. 1.40 oil objective (Nikon), spinning disk Yokogawa CSU-X1-A1 with 405-491-561-642 quad-band mirror (Yokogawa). […]
All images were processed using ImageJ. For quantification of fluorescence intensity, sum projections were made for each z-stack using ImageJ. Next, the raw integrated density of a square box around individual cells of interest per image, as well as an empty region in the field of view, were calculated using ImageJ. […]

[2] = tested on: human healthy lung organoids; test: Healthy organoids killing assay with tumor-reactive T cells; assay type: cell-based; details: tumor-reactive T cells pre-treated with docetaxel
Method: To express luciferase in the tumor organoids, we used pLenti CMV Puro LUC (w168-1; Plasmid #17477; Addgene). Tumor-reactive PBMC were thawed in pre-warmed T cell medium and incubated for 15 minutes with 25 U/ml Benzonase. After washing, cells were re-suspended at 2−3×10^6 cells/ml in T cell medium and cultured overnight at 37° C. The day after, PBMC were incubated with (or without) 10 nmol/L docetaxel for 48 hr. To determine the sensitivity of tumor and healthy organoids to T cell-mediated killing, flatbottom non-tissue culture treated plates were coated with 5 μg/ml αCD28 and kept at 4° C. overnight prior to co-culture. Tumor organoids were previously transduced with luciferase reporter gene. Organoids were isolated from Geltrex 48 hours prior to co-culture and stimulated with 200 ng/ml IFNγ for 24 hr prior to co-culture. The next day, part of the organoids was dissociated to single cells and counted using a hemocytometer. […] At the end of the 72 hours, tumor and healthy organoids viability in the different conditions was evaluated by microscopy, taking bright-field pictures at 5 and 10× magnification. Tumor cell viability in the different conditions was also measured by luciferase reporter assay using 3 μg/mL luciferin. Luminescence was measured with a Tecan reader (1,000 ms exposure).

Which results are given for `CC(=O)O[C@@]12CO[C@@H]1C[C@H](O)[C@@]1(C)C(=O)[C@H](O)C3=C(C)[C@@H](OC(=O)[C@H](O)[C@@H](NC(=O)OC(C)(C)C)c4ccccc4)C[C@@](O)([C@@H](OC(=O)c4ccccc4)[C@H]21)C3(C)C` [docetaxel]?
microtubule density [1]: increased microtubule density; killing of healthy organoids [2]: not against healthy organoids

From patent US20250387481A1, “PRE-TREATED T CELLS FOR USE AS A MEDICAMENT” (STICHTING HET NEDERLANDS KANKER INSTITUUT-ANTONI VAN …, priority 2022, published 2025)
